Test results as given in patent US20250073255A1, “USE OF FA-TYPE LIPID COMPOUNDS IN PREPARATION OF NUCLEIC ACID DELIVERY REAGENT AND RELATED PRODUCT” (BEIJING BAISHIKANG PHARMACEUTICAL TECHNOLOGY (BSJPHARMA) …, priority 2021, published 2025).

System: C57BL/6 male mice
Assay: In vivo delivery study of lipid nucleic acid mixture (oral gavage, RT-qPCR of PGY-sRNA-26 in tissues)
Set-up: species or system mouse
Details: for oral delivery of single-stranded sRNA nucleic acids into mouse blood / oral delivery of single-stranded sRNA nucleic acids into mouse brain tissue / oral delivery of single-stranded sRNA nucleic acids into mouse femur / oral delivery of single-stranded sRNA nucleic acids into mouse heart tissue / oral delivery of single-stranded sRNA nucleic acids into mouse intestinal tissue / oral delivery of single-stranded sRNA nucleic acids into mouse kidney tissue / oral delivery of single-stranded sRNA nucleic acids into mouse liver tissue / oral delivery of single-stranded sRNA nucleic acids into mouse lung tissue / oral delivery of single-stranded sRNA nucleic acids into mouse pancreatic tissue / oral delivery of single-stranded sRNA nucleic acids into mouse spleen tissue / oral delivery of single-stranded sRNA nucleic acids into mouse stomach tissue: 100 μg lipid:10 nmol PGY-sRNA-26, sampled after 12 hours; for oral delivery of single-stranded sRNA nucleic acids into mouse heart tissue: vs free uptake group; for oral delivery of single-stranded sRNA nucleic acids into mouse intestinal tissue: intestine; for oral delivery of single-stranded sRNA nucleic acids into mouse pancreatic tissue: pancreas
In short: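 Lipid (100 μg) and 10 nmol 3'-methylated single-stranded PGY-sRNA-26 were heated at 90 °C for 15 min, then given by oral gavage to mice fasted 12 h. Controls were saline and free sRNA. Blood and tissues were taken at 12 h, and levels were measured by stem-loop RT-qPCR relative to U6.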

Q: For `CCCCCC/C=C\CCCCCCCC(=O)OCCCCCCCCCCCCCCCCCCC` [Lipid 822, nonadecyl (Z)-hexadec-9-enoate], which “overall delivery efficacy: delivering nucleic acids into each tissue and blood tested” value (100 μg lipid:10 nmol PGY-sRNA-26, all tissues and blood tested) is on record?
A: Its value is “best delivery efficacy”.

Q: And the “oral delivery of single-stranded sRNA nucleic acids into mouse blood” value?
A: The value was “can effectively orally deliver”.

Q: And the “oral delivery of single-stranded sRNA nucleic acids into mouse brain tissue” value?
A: Its value is “can effectively orally deliver”.

Q: What about the “oral delivery of single-stranded sRNA nucleic acids into mouse femur” value of the same compound?
A: The value was “can effectively orally deliver”.

Q: And the “oral delivery of single-stranded sRNA nucleic acids into mouse heart tissue” value?
A: The value was “can effectively orally deliver”.

Q: And the “oral delivery of single-stranded sRNA nucleic acids into mouse intestinal tissue” value?
A: The value was “can effectively orally deliver”.

Q: What about the “oral delivery of single-stranded sRNA nucleic acids into mouse kidney tissue” value of the same compound?
A: The value was “can effectively orally deliver”.

Q: And the “oral delivery of single-stranded sRNA nucleic acids into mouse liver tissue” value?
A: The value was “can effectively orally deliver”.

Q: And the “oral delivery of single-stranded sRNA nucleic acids into mouse lung tissue” value?
A: Its value is “can effectively orally deliver”.

Q: And the “oral delivery of single-stranded sRNA nucleic acids into mouse pancreatic tissue” value?
A: The value was “can effectively orally deliver”.

Q: What about the “oral delivery of single-stranded sRNA nucleic acids into mouse spleen tissue” value of the same compound?
A: The value was “can effectively orally deliver”.

Q: And the “oral delivery of single-stranded sRNA nucleic acids into mouse stomach tissue” value?
A: Its value is “can effectively orally deliver”.

Q: For `CCCCCC/C=C\CCCCCCCC(=O)OCCCCCCCCCCCCCCCCCCCCCC` [Lipid 823, docosyl (Z)-hexadec-9-enoate], which “oral delivery of single-stranded sRNA nucleic acids into mouse blood” value is on record?
A: The value was “can effectively orally deliver”.

Q: And the “oral delivery of single-stranded sRNA nucleic acids into mouse brain tissue” value?
A: Its value is “can effectively orally deliver”.

Q: What about the “oral delivery of single-stranded sRNA nucleic acids into mouse femur” value of the same compound?
A: Its value is “can effectively orally deliver”.

Q: And the “oral delivery of single-stranded sRNA nucleic acids into mouse heart tissue” value?
A: The value was “can effectively orally deliver”.

Q: What about the “oral delivery of single-stranded sRNA nucleic acids into mouse intestinal tissue” value of the same compound?
A: The value was “can effectively orally deliver”.

Q: What about the “oral delivery of single-stranded sRNA nucleic acids into mouse kidney tissue” value of the same compound?
A: The value was “can effectively orally deliver”.

Q: And the “oral delivery of single-stranded sRNA nucleic acids into mouse liver tissue” value?
A: Its value is “can effectively orally deliver”.

Q: And the “oral delivery of single-stranded sRNA nucleic acids into mouse lung tissue” value?
A: Its value is “can effectively orally deliver”.

Q: And the “oral delivery of single-stranded sRNA nucleic acids into mouse pancreatic tissue” value?
A: Its value is “can effectively orally deliver”.

Q: What about the “oral delivery of single-stranded sRNA nucleic acids into mouse spleen tissue” value of the same compound?
A: The value was “can effectively orally deliver”.

Q: What about the “oral delivery of single-stranded sRNA nucleic acids into mouse stomach tissue” value of the same compound?
A: The value was “can effectively orally deliver”.

Q: What does the source list for `CC/C=C\C/C=C\C/C=C\CCCCCCCC(=O)OCCCCCCCCCCCCCC` [Lipid 824, tetradecyl (9Z,12Z,15Z)-octadeca-9,12,15-trienoate]?
A: oral delivery of single-stranded sRNA nucleic acids into mouse blood: can effectively orally deliver; oral delivery of single-stranded sRNA nucleic acids into mouse brain tissue: can effectively orally deliver; oral delivery of single-stranded sRNA nucleic acids into mouse femur: can effectively orally deliver; oral delivery of single-stranded sRNA nucleic acids into mouse heart tissue: can effectively orally deliver; oral delivery of single-stranded sRNA nucleic acids into mouse intestinal tissue: can effectively orally deliver; oral delivery of single-stranded sRNA nucleic acids into mouse kidney tissue: can effectively orally deliver; oral delivery of single-stranded sRNA nucleic acids into mouse liver tissue: can effectively orally deliver; oral delivery of single-stranded sRNA nucleic acids into mouse lung tissue: can effectively orally deliver; oral delivery of single-stranded sRNA nucleic acids into mouse pancreatic tissue: can effectively orally deliver; oral delivery of single-stranded sRNA nucleic acids into mouse spleen tissue: can effectively orally deliver; oral delivery of single-stranded sRNA nucleic acids into mouse stomach tissue: can effectively orally deliver
